Measured values: ChEMBL document CHEMBL4706515, “Discovery of new [1,2,4] Triazolo[1,5-a]Pyrimidine derivatives that Kill gastric cancer cells via the mitochondria pathway” (Eur J Med Chem, 2020)
Calls of active or inactive are those of the source. The rule behind the calls is not given here.

Assays:
MGC-803 [1] = assay: Induction of apoptosis in human MGC-803 cells assessed as early apoptotic cells at 10 uM measure after 24 hrs by Annexin-PI staining based Flowcytometry method (reference value: 9.8%); assay type: functional
MGC-803 [2] = assay: Induction of mitochondrial membrane potential loss in human MGC-803 cells at 2.5 uM measured after 24 hrs by JC-1 staining based flow cytometry method (reference value: 0.344%); conditions: Mitochondria
MGC-803 [3] = assay: Antiproliferative activity in human MGC-803 cells assessed as cell viability preincubated with chloroquine followed by compound addition measured after 24 hrs by SRB staining method; assay type: functional, cell-based
SGC-7901 [4] = assay: Induction of apoptosis in human SGC-7901 cells assessed as viable cells at 2.5 uM measure after 24 hrs by Annexin-PI staining based Flowcytometry method (reference value: 94.9%); assay type: functional; conditions: read-out: Activity
SGC-7901 [5] = assay: Induction of apoptosis in human SGC-7901 cells assessed as viable cells at 1.25 uM measure after 24 hrs by Annexin-PI staining based Flowcytometry method (reference value: 94.9%); assay type: functional; conditions: read-out: Activity
BGC-823 = assay: Antiproliferative activity against human BGC-823 cells assessed as inhibition of cell growth at measured after 72 hrs by SRB assay; assay type: functional
MGC-803 [6] = assay: Induction of mitochondrial membrane potential loss in human MGC-803 cells at 1.25 uM measured after 24 hrs by JC-1 staining based flow cytometry method (reference value: 0.344%); conditions: Mitochondria
MGC-803 [7] = assay: Induction of apoptosis in human MGC-803 cells assessed as necrotic cells at 5 uM measure after 24 hrs by Annexin-PI staining based Flowcytometry method (reference value: 3.13%); assay type: functional
MGC-803 [8] = assay: Induction of apoptosis in human MGC-803 cells assessed as viable cells at 5 uM measure after 24 hrs by Annexin-PI staining based Flowcytometry method (reference value: 80%); assay type: functional; conditions: read-out: Activity
MGC-803 [9] = assay: Inhibition of cell proliferation in human MGC-803 cells at 2.5 uM measured after 72 hrs by SRB assay; assay type: functional, cell-based
SGC-7901 [10] = assay: Induction of apoptosis in human SGC-7901 cells assessed as necrotic cells at 0.625 uM measure after 24 hrs by Annexin-PI staining based Flowcytometry method (reference value: 1.16%); assay type: functional
SGC-7901 [11] = assay: Induction of apoptosis in human SGC-7901 cells assessed as early apoptotic cells at 1.25 uM measure after 24 hrs by Annexin-PI staining based Flowcytometry method (reference value: 2.68%); assay type: functional
MGC-803 [12] = assay: Induction of apoptosis in human MGC-803 cells assessed as late apoptotic cells at 2.5 uM measure after 24 hrs by Annexin-PI staining based Flowcytometry method (reference value: 7.06%); assay type: functional
MGC-803 [13] = assay: Antiproliferative activity against human MGC-803 cells assessed as inhibition of cell growth at measured after 72 hrs by SRB assay; assay type: functional
SGC-7901 [14] = assay: Induction of apoptosis in human SGC-7901 cells assessed as late apoptotic cells at 2.5 uM measure after 24 hrs by Annexin-PI staining based Flowcytometry method (reference value: 1.29%); assay type: functional
MGC-803 [15] = assay: Induction of apoptosis in human MGC-803 cells assessed as increase in ROS production at 5 uM measured after 24 hrs by DCHF-DA staining based Flowcytometry method; assay type: functional, cell-based
SGC-7901 [16] = assay: Induction of apoptosis in human SGC-7901 cells assessed as early apoptotic cells at 0.625 uM measure after 24 hrs by Annexin-PI staining based Flowcytometry method (reference value: 2.68%); assay type: functional
MGC-803 [17] = assay: Induction of apoptosis in human MGC-803 cells assessed as increase in accumulation of cleaved PARP measured after 24 hrs by western blot assay; assay type: functional, cell-based
MGC-803 [18] = assay: Antiproliferative activity in human MGC-803 cells assessed as inhibition of cell viability preincubated with 3-methyladenine followed by compound addition measured after 24 hrs by SRB staining method; assay type: functional, cell-based
EJ = assay: Antiproliferative activity against human EJ cells assessed as inhibition of cell growth at measured after 72 hrs by SRB assay; assay type: functional
SGC-7901 [19] = assay: Induction of apoptosis in human SGC-7901 cells assessed as viable cells at 10 uM measure after 24 hrs by Annexin-PI staining based Flowcytometry method (reference value: 94.9%); assay type: functional; conditions: read-out: Activity
MGC-803 [20] = assay: Antiproliferative activity in human MGC-803 cells assessed as inhibition of cell viability preincubated for 1 hr with NAC followed by compound addition at 5 uM measured after 72 hrs by SRB staining method; assay type: functional, cell-based
MGC-803 [21] = assay: Induction of morphological changes in human MGC-803 cells assessed as cell shrinkage at 5 uM incubated for 1 hrs by bright field microscopic analysis; assay type: functional, cell-based
MGC-803 [22] = assay: Induction of mitochondrial membrane potential loss in human MGC-803 cells at 10 uM measured after 24 hrs by JC-1 staining based flow cytometry method (reference value: 0.344%); conditions: Mitochondria
SGC-7901 [23] = assay: Induction of apoptosis in human SGC-7901 cells assessed as necrotic cells at 10 uM measure after 24 hrs by Annexin-PI staining based Flowcytometry method (reference value: 1.16%); assay type: functional
MGC-803 [24] = assay: Inhibition of cell proliferation in human MGC-803 cells at 5 uM measured by SRB assay; assay type: functional, cell-based; conditions: time 72.0 hrs
MGC-803 [25] = assay: Induction of mitochondrial membrane potential loss in human MGC-803 cells at 2.5 uM measured after 24 hrs by fluorescence method; conditions: Mitochondria
MGC-803 [26] = assay: Cell cycle arrest in human MGC-803 cells assessed as accumulation of cells in G2/M phase at 5 uM measured after 24 hrs by PI staining based flow cytometry; assay type: functional
MGC-803 [27] = assay: Induction of apoptosis in human MGC-803 cells assessed as necrotic cells at 2.5 uM measure after 24 hrs by Annexin-PI staining based Flowcytometry method (reference value: 3.13%); assay type: functional
MGC-803 [28] = assay: Induction of apoptosis in human MGC-803 assessed by cleaved PARP levels incubated for 1 hr with Z-VAD-FMK followed by compound addition measured by western blot assay; assay type: functional, cell-based
MGC-803 [29] = assay: Induction of apoptosis in human MGC-803 cells assessed as necrotic cells at 0.625 uM measure after 24 hrs by Annexin-PI staining based Flowcytometry method (reference value: 3.13%); assay type: functional
SGC-7901 [30] = assay: Induction of apoptosis in human SGC-7901 cells assessed as early apoptotic cells at 2.5 uM measure after 24 hrs by Annexin-PI staining based Flowcytometry method (reference value: 2.68%); assay type: functional
MGC-803 [31] = assay: Induction of apoptosis in human MGC-803 cells assessed as viable cells at 2.5 uM measure after 24 hrs by Annexin-PI staining based Flowcytometry method (reference value: 80%); assay type: functional; conditions: read-out: Activity
MGC-803 [32] = assay: Induction of apoptosis in human MGC-803 cells assessed as accumulation of cleaved caspase 3 protein at 0.625 to 10 uM measured after 24 hrs by western blot assay; assay type: functional, cell-based; conditions: dose 0.625-10 µM
SGC-7901 [33] = assay: Induction of apoptosis in human SGC-7901 cells assessed as necrotic cells at 5 uM measure after 24 hrs by Annexin-PI staining based Flowcytometry method (reference value: 1.16%); assay type: functional
SGC-7901 [34] = assay: Induction of apoptosis in human SGC-7901 cells assessed as early apoptotic cells at 5 uM measure after 24 hrs by Annexin-PI staining based Flowcytometry method (reference value: 2.68%); assay type: functional
MGC-803 [35] = assay: Inhibition of cell proliferation in human MGC-803 cells at 10 uM measured by SRB assay; assay type: functional, cell-based; conditions: time 72.0 hrs

Q: Which Activity (MGC-803 [1]) does the source give for Cc1cc(Nc2ccc(C(=O)/C=C/c3cccc(Br)n3)cc2)n2nc(SCc3nc4ccccc4[nH]3)nc2n1 here?
A: 9.48%

Q: What about the Activity (MGC-803 [2]) of the same compound?
A: 3.25%

Q: What about the inhibition (MGC-803 [3]) of the same compound?
A: inactive

Q: What about the viability at 2.5 µM (SGC-7901 [4]) of the same compound?
A: 88.3%

Q: And the viability at 1.25 µM (SGC-7901 [5])?
A: 94.8%

Q: And the GI50 (BGC-823)?
A: 640 nM

Q: What about the Activity (MGC-803 [6]) of the same compound?
A: 10.1%

Q: And the Activity (MGC-803 [7])?
A: 4.51%

Q: And the viability at 5 µM (MGC-803 [8])?
A: 73.8%

Q: And the inhibition (MGC-803 [9])?
A: inactive

Q: What about the Activity (SGC-7901 [10]) of the same compound?
A: 1.96%

Q: And the Activity (SGC-7901 [11])?
A: 1.59%

Q: And the Activity (MGC-803 [12])?
A: 4.7%

Q: And the GI50 (MGC-803 [13])?
A: 640 nM

Q: And the Activity (SGC-7901 [14])?
A: 5.53%

Q: What about the Activity (MGC-803 [15]) of the same compound?
A: Active

Q: What about the Activity (SGC-7901 [16]) of the same compound?
A: 2.25%

Q: And the Activity (MGC-803 [17])?
A: Active

Q: And the inhibition (MGC-803 [18])?
A: Active

Q: And the GI50 (EJ)?
A: > 10000 nM

Q: What about the viability at 10 µM (SGC-7901 [19]) of the same compound?
A: 23.9%

Q: And the inhibition (MGC-803 [20])?
A: inactive

Q: What about the Activity (MGC-803 [21]) of the same compound?
A: Active

Q: And the Activity (MGC-803 [22])?
A: 10.7%

Q: What about the Activity (SGC-7901 [23]) of the same compound?
A: 4.79%

Q: And the inhibition (MGC-803 [24])?
A: Active

Q: What about the Activity (MGC-803 [25]) of the same compound?
A: Active

Q: And the Activity (MGC-803 [26])?
A: Active

Q: What about the Activity (MGC-803 [27]) of the same compound?
A: 1.75%

Q: And the Activity (MGC-803 [28])?
A: inactive

Q: And the Activity (MGC-803 [29])?
A: 1.72%

Q: What about the Activity (SGC-7901 [30]) of the same compound?
A: 5%

Q: What about the viability at 2.5 µM (MGC-803 [31]) of the same compound?
A: 86.4%

Q: And the Activity (MGC-803 [32])?
A: Active

Q: What about the Activity (SGC-7901 [33]) of the same compound?
A: 0.586%

Q: What about the Activity (SGC-7901 [34]) of the same compound?
A: 16.7%

Q: What about the inhibition (MGC-803 [35]) of the same compound?
A: Active
